Measured values: ChEMBL document CHEMBL1201862, “PubChem BioAssay data set” (2004)
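Test compounds were applied to cells in 96-well plates for 48 hours at 5 doses. GI50 = concentration required for 50% inhibition of growth.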 Active and inactive are the calls of the source. Rule as the data show it: active = GI50 up to about 1.1 µM and inactive = higher.

Tests used:
Assay in all cases: NCI tumour cell line growth inhibition, 48 h
HCC 2998 = test system: HCC 2998
RPMI-8226 = test system: RPMI-8226
SN12C = test system: SN12C
CAKI-1 = test system: CAKI-1
A498 = test system: A498
TK-10 = test system: TK-10
SF-268 = test system: SF-268
RXF 393 = test system: RXF 393
PC-3 = test system: PC-3
IGROV-1 = test system: IGROV-1
SK-MEL-2 = test system: SK-MEL-2
Malme-3M = test system: Malme-3M
A549 = test system: A549
NCI-H23 = test system: NCI-H23
HCT-116 = test system: HCT-116
UO-31 = test system: UO-31
DU-145 = test system: DU-145
KM12 = test system: KM12
OVCAR-5 = test system: OVCAR-5
NCI-H226 = test system: NCI-H226

Compound | GI50 (HCC 2998) | GI50 (RPMI-8226) | GI50 (SN12C) | GI50 (CAKI-1) | GI50 (A498) | GI50 (TK-10) | GI50 (SF-268) | GI50 (RXF 393) | GI50 (PC-3) | GI50 (IGROV-1) | GI50 (SK-MEL-2) | GI50 (Malme-3M) | GI50 (A549) | GI50 (NCI-H23) | GI50 (HCT-116) | GI50 (UO-31) | GI50 (DU-145) | GI50 (KM12) | GI50 (OVCAR-5) | GI50 (NCI-H226)
O=C(O)c1cnc2cc(OCc3ccccc3)ccc2c1O | 18.3 µM (inactive) | 24.8 µM (inactive) | 18.2 µM (inactive) | 20.2 µM (inactive) | 17.6 µM (inactive) | 19.9 µM (inactive) | 16 µM (inactive) | 18.3 µM (inactive) | 17.1 µM (inactive) | 18.3 µM (inactive) | 18.5 µM (inactive) | 13.8 µM (inactive) | 19.5 µM (inactive) | 17.9 µM (inactive) | 17.2 µM (inactive) | 17.3 µM (inactive) | 18 µM (inactive) | 18.5 µM (inactive) | 27.3 µM (inactive) | 18.3 µM (inactive)
CC1OC(Oc2c(-c3cc(O)c(O)c(O)c3)oc3cc(O)cc(O)c3c2=O)C(O)C(O)C1O (stereo not given) | > 100 µM (inactive) | > 100 µM (inactive) | > 100 µM (inactive) | > 100 µM (inactive) | > 100 µM (inactive) | > 100 µM (inactive) | > 100 µM (inactive) | > 100 µM (inactive) | > 100 µM (inactive) | > 100 µM (inactive) | > 100 µM (inactive) | > 100 µM (inactive) | > 100 µM (inactive) | > 100 µM (inactive) | > 100 µM (inactive) | > 100 µM (inactive) | > 100 µM (inactive) | > 100 µM (inactive) | > 100 µM (inactive) | > 100 µM (inactive)
Cc1c(C#N)c2nnn(-c3ccc(Cl)cc3)c(=O)n2c1-c1ccccc1 | 0.0713 µM (active) | 0.16 µM (active) | 0.107 µM (active) | 0.251 µM (active) | 0.124 µM (active) | 0.476 µM (active) | 0.199 µM (active) | 0.0764 µM (active) | 0.0459 µM (active) | 0.113 µM (active) | 0.0746 µM (active) | 0.0468 µM (active) | 0.166 µM (active) | 0.167 µM (active) | 0.0649 µM (active) | 3.29 µM (inactive) | 0.0895 µM (active) | 0.051 µM (active) | 0.247 µM (active) | 0.114 µM (active)
OC/C=C/[C@H](OCc1ccccc1)[C@H](/C=C/CO)OCc1ccccc1 | 50.2 µM (inactive) | 23.1 µM (inactive) | 47.8 µM (inactive) | > 100 µM (inactive) | > 100 µM (inactive) | 73.1 µM (inactive) | 40.2 µM (inactive) | 9.06 µM (inactive) | 32.3 µM (inactive) | 42.5 µM (inactive) | 37.4 µM (inactive) | > 100 µM (inactive) | 30.3 µM (inactive) | 47.8 µM (inactive) | 35.1 µM (inactive) | 64.1 µM (inactive) | 81.1 µM (inactive) | 41.8 µM (inactive) | > 100 µM (inactive) | > 100 µM (inactive)
C=C(O)c1ccccc1C#Cc1ccccc1C(=O)OC | > 10 µM (inactive) | > 10 µM (inactive) | > 10 µM (inactive) | > 10 µM (inactive) | > 10 µM (inactive) | > 10 µM (inactive) | > 10 µM (inactive) | > 10 µM (inactive) | > 10 µM (inactive) | > 10 µM (inactive) | > 10 µM (inactive) | > 10 µM (inactive) | > 10 µM (inactive) | > 10 µM (inactive) | > 10 µM (inactive) | > 10 µM (inactive) | > 10 µM (inactive) | > 10 µM (inactive) | > 10 µM (inactive) | > 10 µM (inactive)
CC(=O)OCC1OC(N2C(C)=C(C(C)=O)C(c3ccc(Cl)cc3)C(C#N)=C2S)C(OC(C)=O)C(OC(C)=O)C1OC(C)=O (stereo not given) | 47.1 µM (inactive) | 37.9 µM (inactive) | 85.9 µM (inactive) | > 100 µM (inactive) | 38.2 µM (inactive) | 76.9 µM (inactive) | 65.8 µM (inactive) | 52.8 µM (inactive) | 36 µM (inactive) | 57.5 µM (inactive) | 37.6 µM (inactive) | 48.4 µM (inactive) | 49.9 µM (inactive) | > 10 µM (inactive) | 36.7 µM (inactive) | 36.8 µM (inactive) | 68.5 µM (inactive) | 79.8 µM (inactive) | > 100 µM (inactive) | 44.1 µM (inactive)
O=C1c2ccccc2C(=O)c2sc(Nc3ccccc3Cl)nc21 | 18.5 µM (inactive) | 3.68 µM (inactive) | 7.5 µM (inactive) | 4.06 µM (inactive) | 16.2 µM (inactive) | 19.7 µM (inactive) | 9.29 µM (inactive) | 16.4 µM (inactive) | 12.7 µM (inactive) | 13.9 µM (inactive) | 13.6 µM (inactive) | 14.2 µM (inactive) | 19.8 µM (inactive) | 4.98 µM (inactive) | 10.7 µM (inactive) | 10.6 µM (inactive) | 17.6 µM (inactive) | 15 µM (inactive) | 19.8 µM (inactive) | 5.56 µM (inactive)
CC1CN1C(=O)NCCCCCCNC(=O)N1CC1C (stereo not given) | > 100 µM (inactive) | > 100 µM (inactive) | 61.8 µM (inactive) | 48.4 µM (inactive) | > 100 µM (inactive) | > 100 µM (inactive) | 29.8 µM (inactive) | > 100 µM (inactive) | > 100 µM (inactive) | > 100 µM (inactive) | > 100 µM (inactive) | > 100 µM (inactive) | 31.1 µM (inactive) | 27.3 µM (inactive) | 81.3 µM (inactive) | 79.4 µM (inactive) | 22.2 µM (inactive) | > 100 µM (inactive) | > 100 µM (inactive) | > 75.7 µM (inactive)
C[N+](C)(N)Cc1csc(-c2ccc(Cl)cc2)n1 | > 100 µM (inactive) | > 100 µM (inactive) | 34.8 µM (inactive) | > 100 µM (inactive) | 88.5 µM (inactive) | > 100 µM (inactive) | 46.5 µM (inactive) | > 100 µM (inactive) | > 100 µM (inactive) | > 100 µM (inactive) | > 100 µM (inactive) | 39.4 µM (inactive) | 71.8 µM (inactive) | > 100 µM (inactive) | > 100 µM (inactive) | > 100 µM (inactive) | > 100 µM (inactive) | > 100 µM (inactive) | > 100 µM (inactive) | 48.2 µM (inactive)
OCCNCNc1nc(NCNCCO)nc(N(CNCCO)CNCCO)n1 | 18.9 µM (inactive) | > 43.8 µM (inactive) | 22.3 µM (inactive) | 22.4 µM (inactive) | 28.1 µM (inactive) | 28.8 µM (inactive) | 23.7 µM (inactive) | 15 µM (inactive) | 22.3 µM (inactive) | 22.6 µM (inactive) | 21.5 µM (inactive) | 18.5 µM (inactive) | 27.2 µM (inactive) | 21.2 µM (inactive) | 18.7 µM (inactive) | 33.2 µM (inactive) | 18.5 µM (inactive) | 39.4 µM (inactive) | 13.6 µM (inactive) | 22.6 µM (inactive)
CCN(C(=O)N[C@@H](C)C(=O)N[C@@H](Cc1ccccc1)C(=O)OC)c1ccccc1 | 81.5 µM (inactive) | 38.5 µM (inactive) | 23 µM (inactive) | > 100 µM (inactive) | > 100 µM (inactive) | > 100 µM (inactive) | > 100 µM (inactive) | > 100 µM (inactive) | > 100 µM (inactive) | 44.7 µM (inactive) | 28.6 µM (inactive) | 34.4 µM (inactive) | > 100 µM (inactive) | > 100 µM (inactive) | > 100 µM (inactive) | 31.7 µM (inactive) | 46 µM (inactive) | > 100 µM (inactive) | > 100 µM (inactive) | > 100 µM (inactive)
COc1ccc2c3c([nH]c2c1)[C@H]1C[C@H]2[C@H](C[C@@H](O)[C@H](OC)[C@H]2C(=O)O)CN1CC3 | > 100 µM (inactive) | > 100 µM (inactive) | > 100 µM (inactive) | > 100 µM (inactive) | > 100 µM (inactive) | > 100 µM (inactive) | > 100 µM (inactive) | > 100 µM (inactive) | > 100 µM (inactive) | > 100 µM (inactive) | > 100 µM (inactive) | > 100 µM (inactive) | > 100 µM (inactive) | > 100 µM (inactive) | > 100 µM (inactive) | > 100 µM (inactive) | > 100 µM (inactive) | > 100 µM (inactive) | > 100 µM (inactive) | > 100 µM (inactive)
c1ccc2c3c([nH]c2c1)C1c2[nH]c4ccccc4c2CCN1CC3 | 7.64 µM (inactive) | 11.9 µM (inactive) | 15.2 µM (inactive) | 18.7 µM (inactive) | 19 µM (inactive) | 11.2 µM (inactive) | 14.4 µM (inactive) | 13.6 µM (inactive) | 12.9 µM (inactive) | 12.7 µM (inactive) | 26.8 µM (inactive) | 15.1 µM (inactive) | 14.7 µM (inactive) | 12.3 µM (inactive) | 10.2 µM (inactive) | 5.62 µM (inactive) | 13.2 µM (inactive) | 12.5 µM (inactive) | 19.5 µM (inactive) | 14.7 µM (inactive)
CN(C)CCNc1ccc2c(=O)n(CCN(C)C)c(=O)n3c4ccccc4c(=O)c1c23 | < 0.0164 µM (active) | 0.0182 µM (active) | 0.0198 µM (active) | 0.0133 µM (active) | 0.157 µM (active) | 0.392 µM (active) | 0.0512 µM (active) | 0.109 µM (active) | 0.114 µM (active) | 0.0404 µM (active) | 0.399 µM (active) | 0.18 µM (active) | < 0.0216 µM (active) | 0.0505 µM (active) | 0.0269 µM (active) | 0.166 µM (active) | 0.0197 µM (active) | 0.116 µM (active) | 0.318 µM (active) | 0.0603 µM (active)
